According to patent US20240277737A1, “METHOD FOR GENERATING DRY POWDER SUITABLE FOR INHALATION ADMINISTRATION OF ANTIMICROBIAL PHOSPHOLIPID COMPOSITIONS” (Celestial Therapeutics, Inc., priority 2021, published 2024):
Converted amounts (≈) assume the structure as drawn.

Assays:
[1] = solubility screening for API spray drying (organic solvents); assay type: physicochemical
Experimental: The solubility of the surfactant was investigated to identify a suitable solvent system in which the surfactants can be solubilized to process the material by spray drying.
The class III solvents were preferred to the class II solvents because the […] and of lower risk to human health. The solubility of the POPG using class III solvent was lower than 0.5 mg/mL. For this reason, Class II solvents were investigated. The highest solubility was obtained with a mixture DCM/Methanol 5:1 v/v and it will be used as a vehicle for the spray drying process.

[2] = particle size distribution by Sympatec laser particle sizer (RODOS/ASPIROS, 3 bar); assay type: physicochemical; conditions: raw material, R5 lens
Experimental: The Particle Size Distribution analysis was performed at 3 bar dispersion pressure using a Sympatec laser Particle Sizer equipped with RODOS/ASPIROS dispersion unit and an R5 lens.
The particle size analysis of the spray dried powders was performed at 3 bar dispersion pressure using a Sympatec laser Particle Sizer equipped with RODOS/ASPIROS dispersion unit and an R3 lens (n=2) and is summarised in Table 13 and in FIG. 19-FIG. 21. The PSD of spray dried powders decreased with increasing atomisation pressure and reducing outlet temperature during the spray drying manufacture.
The PSD analysis performed on 174 #003A-01 & 174 #003B-01 following storage at −20° C. was repeat-ed.
The spray dried product 174 #005A-01 was vacuum dried for 24 hours at 25° C. with a maximum pressure ˜0.1 mbar. After the 24 hours, the PSD of this product was evaluated. Post vacuum drying, increased amounts of aggregated material were observed and as a result the Dv90 increased.
Based on the PSD results after the storage, an aliquot of the formulation 174 #005A-01, that was stored at −20° C. for 4 weeks, was taken out from the freezer, transferred in sealed container and equilibrated for 5 hours at ambient temperature (20 C-25 C, <30% RH) in a sealed vial.
The 174 #010A-01 post vacuum drying was separated in different aliquot and stored at 2-8° C. and at −20° C. The PSD and DSC of the spray dried powder was evaluated through time. The spray dried powder was removed from the storage condition an equilibrated at low RH for 5 hours (19° C. and 28% RH) before to perform any test. […]
The particle size distribution of the micronized sample was determined by laser particle size analysis using an R1 (0.1-35.0 μm range) & R3 lens (0.5-175.0 μm range) at 3 bar dispersal pressure at T-0 and after T=7 days after storage of the sample at −20° C. […] There was a slight discrepancy between the two lenses, with the trace of the material measured using the R1 lens appearing larger and very slightly bimodal which wasn't apparent in the trace measured using an R3 lens. […]

[3] = test system: Toll-like receptor 4 (TLR4) interacting proteins CD14 and MD-2; conditions: cited from earlier work
[4] = test system: Respiratory Syncytial Virus (RSV); conditions: bronchial epithelial cells; cited from earlier work

Solubility ([1]; Acetone): <500 µg/mL
Solubility ([1]; Chloroform): 16700 µg/mL (≈ 22300 µM)
Solubility ([1]; Cycloexhane): <500 µg/mL
Solubility ([1]; DCM/ Methanol 5:1 v/v): ~70000 µg/mL (≈ 93500 µM)
Solubility ([1]; Dichloromethane (DCM)): <500 µg/mL
Solubility ([1]; Dimethyl sulfoxide (DMSO)): 500 µg/mL (≈ 668 µM)
Solubility ([1]; Dimethylformamide (DMF)): <500 µg/mL
Solubility ([1]; Ethanol (96%)): 500 µg/mL (≈ 668 µM)
Solubility ([1]; Ethyl Acetate): <500 µg/mL
Solubility ([1]; Heptane): <500 µg/mL
Solubility ([1]; Isopropanol (IPA)): <500 µg/mL
Solubility ([1]; Methanol): 1350 µg/mL (≈ 1800 µM)
Solubility ([1]; class III solvent): lower than 0.5 mg/mL
VMD [2]: 59.05 ± 13.17 μm
X10 [2]: 1.80 ± 0.07 μm
X50 [2]: 12.65 ± 4.65 μm
SMILES: CCCCCCCC/C=C\CCCCCCCC(=O)O[C@H](COC(=O)CCCCCCCCCCCCCCC)COP(=O)(O)OCC(O)CO (mixture of isomers) [POPG, 1-Palmitoy-2-loleoyl-sn-glycerol-3-phospho-(1′-rac-glycerol)]
inflammatory responses induced by lipopolysaccharide [3]: markedly attenuate
cytopathic effects induced by RSV [4]: significantly inhibited
interleukin-6 production [4]: significantly inhibited
interleukin-8 production [4]: significantly inhibited
